In patent US20240216344A1, “THIAZOLIDINEDIONE ANALOGS FOR THE TREATMENT OF NAFLD AND METABOLIC DISEASES” (Cirius Therapeutics, Inc., priority 2019, published 2024):

Test system: patients with biopsy-proven NASH with fibrosis and no cirrhosis
Assay: EMMINENCE Phase 2b trial, markers of glucose metabolism, liver enzymes, fibrosis and apoptosis biomarkers
Format: in vivo, human
Settings: for Glucose, LS mean change from baseline to 6 months / Glucose, LS mean difference vs placebo at 6 months / HOMA IR, LS mean change from baseline to 6 months / HOMA IR, LS mean difference vs placebo at 6 months / HgBA1C, LS mean change from baseline to 6 months / HgBA1C, LS mean difference vs placebo at 6 months / Insulin, LS mean change from baseline to 6 months / Insulin, LS mean difference vs placebo at 6 months: patients with HbA1C >7%
Procedure: Study Design: EMMINENCE was a randomized, double-blind evaluation of three oral daily doses of MSDC-0602K (62.5 mg, 125 mg and 250 mg) or placebo given for 12 months to adult patients with biopsy-proven NASH with fibrosis and no cirrhosis. The primary efficacy endpoint was assessed at 12 months. Clinic visits were conducted at baseline, 1, 2, 3, 6, 9, and 12 months, followed 2 weeks later by a safety visit. An interim analysis of safety and efficacy not related to the primary and secondary endpoints was conducted when 6 month data were available for 328 patients (see Example 5, above.) Interim results were provided only as summary statistics to avoid any unmasking of the study team or sponsor.
If no usable liver biopsy was available within 9 months prior to screening, a percutaneous liver biopsy was performed in patients with AST≥20 U/L and FibroScan CAP score ≥270 db/m and kPa≥8.5. Digitized slides were read by a single expert histopathologist according to NASH Clinical Research Network criteria. Baseline biopsies were read first for study qualification and a second time mixed randomly among 12-month biopsies. Fasting blood samples for routine central laboratory analyses were collected at each visit, and frozen samples collected at selected visits for biomarker assays.
Efficacy endpoints: The primary efficacy endpoint was hepatic histological improvement in NAS defined as ≥2-point NAS decrease with a ≥1-point reduction in either ballooning or lobular inflammation and no increase in fibrosis stage at 12 months. Secondary efficacy endpoints included (1) NASH resolution defined as hepatocellular ballooning score of 0 and lobular inflammation score of 0-1 with no increase in fibrosis stage at 12 months, (2) fibrosis improvement defined as ≥1-stage decrease in fibrosis with no worsening of lobular inflammation or hepatocellular ballooning, (3) change from baseline in NAFLD activity score (NAS) and each one of its components (steatosis, lobular inflammation and ballooning) at 12 months, and (4) change from baseline in fibrosis score at 12 months. Exploratory efficacy endpoints included shifts in the central histopathologist's NASH diagnosis confirmation, and changes from baseline to 12 months in markers of glycemic control and insulin sensitivity, liver function/injury, and apoptosis and liver fibrosis.
Using a modified intent-to-treat approach, treated patients were included for analysis in their randomly-assigned treatment groups. Participation of sites with serious GCP or quality concerns were terminated and their data excluded from the analyses. Post-baseline measures through 14 days after the last study drug dose were included. No errors in treatment assignment occurred. The central histopathologist's re-read of baseline biopsies was used as baseline. Patients who no longer qualified on re-read were included in the analyses. Each active treatment group was compared to placebo with respect to the primary and secondary histopathologic endpoints using logistic regression including adjustment for randomization strata (diabetes mellitus, baseline fibrosis F1 versus F2/F3), and ordinal baseline NAS. Stratification-adjusted risk differences adjusted similarly are provided. The primary analyses included only observed data; sensitivity analyses included multiply-imputing missing follow-up and considering missing follow-up as a non-responder. Each active dose was compared to placebo regarding changes in NASH CRN scores using analysis of covariance with adjustment for age, sex, diabetes mellitus, Vitamin E≥400 IU, baseline fibrosis F1 versus F2/F3, and the baseline value. Changes in laboratory markers from baseline to 6 months and to 12 months were analyzed similarly.
Post-hoc analyses: Each active dose was compared to placebo regarding the proportion where the pathologist's NASH diagnosis shifted from confirmed at baseline (re-read) to not confirmed at month 12 using logistic regression. […]

COc1cccc(C(=O)COc2ccc(CC3SC(=O)NC3=O)cc2)c1 (stereo not shown) [MSDC-0602K]
proportion of patients with baseline ALT above 19 (women) and 30 (men) U/L whose levels were normal at 12 months (62.5 mg): 10.6%
proportion of patients with baseline ALT above 19 (women) and 30 (men) U/L whose levels were normal at 12 months (125 mg): 20.8%
proportion of patients with baseline ALT above 19 (women) and 30 (men) U/L whose levels were normal at 12 months (250 mg): 33.3%
proportion of patients with baseline ALT above 19 (women) and 30 (men) U/L whose levels were normal at 12 months (combined 125 and 250 mg dose groups): 27.2%
Glucose, LS mean change from baseline to 6 months (62.5 mg): -2.42 mmol/L
Glucose, LS mean difference vs placebo at 6 months (62.5 mg): -1.18 mmol/L
HOMA IR, LS mean change from baseline to 6 months (62.5 mg): −6.472
HOMA IR, LS mean difference vs placebo at 6 months (62.5 mg): −1.964
HgBA1C, LS mean change from baseline to 6 months (62.5 mg): −0.61%
HgBA1C, LS mean difference vs placebo at 6 months (62.5 mg): −0.18 %
Insulin, LS mean change from baseline to 6 months (62.5 mg): −7.724 uIU/mL
Insulin, LS mean difference vs placebo at 6 months (62.5 mg): −2.242 uIU/mL
Glucose, LS mean change from baseline to 6 months (125 mg): -3.48 mmol/L
Glucose, LS mean difference vs placebo at 6 months (125 mg): -2.23 mmol/L
HOMA IR, LS mean change from baseline to 6 months (125 mg): −8.178
HOMA IR, LS mean difference vs placebo at 6 months (125 mg): −3.669
HgBA1C, LS mean change from baseline to 6 months (125 mg): −1.43%
HgBA1C, LS mean difference vs placebo at 6 months (125 mg): −1.01%
Insulin, LS mean change from baseline to 6 months (125 mg): −8.208 uIU/mL
Insulin, LS mean difference vs placebo at 6 months (125 mg): −2.726 uIU/mL
Glucose, LS mean change from baseline to 6 months (250 mg): -3.24 mmol/L
Glucose, LS mean difference vs placebo at 6 months (250 mg): -1.99 mmol/L
HOMA IR, LS mean change from baseline to 6 months (250 mg): −8.197
HOMA IR, LS mean difference vs placebo at 6 months (250 mg): −3.689
HgBA1C, LS mean change from baseline to 6 months (250 mg): −1.00%
HgBA1C, LS mean difference vs placebo at 6 months (250 mg): −0.58%
Insulin, LS mean change from baseline to 6 months (250 mg): −10.066 uIU/mL
Insulin, LS mean difference vs placebo at 6 months (250 mg): −4.584 uIU/mL
